According to patent US20070027079A1, “GHRP 2 strips” (priority 2005, published 2007):
Where a SMILES comes first, the peptide text is derived from it. [ ]: non-standard residue; d: D form. d2Nal = N[C@H](Cc1ccc2ccccc2c1)C(=O)O

Experiment: Certificate of analysis GHRP-2: solubility
Format: physicochemical
Conditions: specification: soluble in water and 1% acetic acid at a concentration of ≧1 mg/ml to give a clear, colorless solution; batch 6P-20030403

Solubility: Complies
SMILES: C[C@H](NC(=O)[C@@H](Cc1ccc2ccccc2c1)NC(=O)[C@@H](C)N)C(=O)N[C@@H](Cc1c[nH]c2ccccc12)C(=O)N[C@H](Cc1ccccc1)C(=O)N[C@@H](CCCCN)C(N)=O [GHRP-2, D-Ala-D-Nal-Ala-Trp-D-Phe-Lys-NH2] (H-[dA][d2Nal]AW[dF]K-NH2)
